Measured values taken from US11730712B2, “Functionalized long-chain hydrocarbon mono- and di-carboxylic acids and derivatives thereof, and their use for the prevention or treatment of disease” (ESPERVITA THERAPEUTICS, INC., priority 2021, dated 2023).
Where “and” joins values, the source holds several entries; their conditions need not be identical. Equal entries are not always repeated.

Legend:
Type in all cases: biochemical
AURORA C = target: T1, AURORA C (Homo sapiens, UniProt Q9UQB9); experiment: Kinase assay, wild type kinases; details: compound 10 μM, 10 μM ATP, duplicate (Data 1, Data 2), >100 activation, <100 inhibition; for remaining activity at 10 µM: read-out: % Enzyme Activity (relative to DMSO controls), AURORA C
T1 sequence (Q9UQB9 1-309): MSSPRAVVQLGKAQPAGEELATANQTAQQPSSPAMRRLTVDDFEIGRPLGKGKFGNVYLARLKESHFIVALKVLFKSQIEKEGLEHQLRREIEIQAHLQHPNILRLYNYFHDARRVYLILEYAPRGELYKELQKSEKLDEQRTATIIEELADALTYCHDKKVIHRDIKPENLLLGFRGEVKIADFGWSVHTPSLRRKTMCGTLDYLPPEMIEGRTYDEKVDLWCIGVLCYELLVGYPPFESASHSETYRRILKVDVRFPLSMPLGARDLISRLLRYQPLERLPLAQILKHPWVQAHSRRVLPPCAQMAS

GSK3b = GSK3b (Homo sapiens, UniProt P49841); experiment: Kinase assay, wild type kinases; details: compound 10 μM, 10 μM ATP, duplicate (Data 1, Data 2), >100 activation, <100 inhibition; for remaining activity at 10 µM: read-out: % Enzyme Activity (relative to DMSO controls), GSK3b
Chain of GSK3b (P49841 whole entry, species assumed): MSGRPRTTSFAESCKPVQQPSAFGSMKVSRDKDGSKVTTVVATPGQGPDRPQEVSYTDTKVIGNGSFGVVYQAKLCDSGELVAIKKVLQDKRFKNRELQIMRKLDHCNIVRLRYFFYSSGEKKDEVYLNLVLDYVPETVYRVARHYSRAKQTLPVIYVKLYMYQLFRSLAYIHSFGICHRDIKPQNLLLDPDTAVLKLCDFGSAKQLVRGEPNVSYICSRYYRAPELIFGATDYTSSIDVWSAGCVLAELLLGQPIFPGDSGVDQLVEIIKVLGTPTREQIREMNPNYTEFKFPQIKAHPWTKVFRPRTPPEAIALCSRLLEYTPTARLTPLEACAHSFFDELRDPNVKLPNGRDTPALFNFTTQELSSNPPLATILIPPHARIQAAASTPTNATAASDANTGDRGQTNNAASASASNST

Aurora B = Aurora B (Homo sapiens, UniProt Q96GD4); experiment: Kinase assay, wild type kinases; details: compound 10 μM, 10 μM ATP, duplicate (Data 1, Data 2), >100 activation, <100 inhibition; for remaining activity at 10 µM: read-out: % Enzyme Activity (relative to DMSO controls), Aurora B
Chain of Aurora B (Q96GD4 whole entry): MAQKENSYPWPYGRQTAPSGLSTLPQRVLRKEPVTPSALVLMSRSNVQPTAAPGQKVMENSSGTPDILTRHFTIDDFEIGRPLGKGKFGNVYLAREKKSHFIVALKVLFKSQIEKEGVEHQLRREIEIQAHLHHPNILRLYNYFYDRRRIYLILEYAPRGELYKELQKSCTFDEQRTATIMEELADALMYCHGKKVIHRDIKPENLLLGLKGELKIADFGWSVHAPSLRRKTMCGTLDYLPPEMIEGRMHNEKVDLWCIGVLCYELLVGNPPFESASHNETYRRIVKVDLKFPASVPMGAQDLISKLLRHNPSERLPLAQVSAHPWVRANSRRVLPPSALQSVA

MLCK/MYLK = MLCK/MYLK (Homo sapiens, UniProt Q15746); experiment: Kinase assay, wild type kinases; details: compound 10 μM, 10 μM ATP, duplicate (Data 1, Data 2), >100 activation, <100 inhibition; for remaining activity at 10 µM: read-out: % Enzyme Activity (relative to DMSO controls), MLCK/MYLK
Human ACC1 = target: T2, Human ACC1 (Homo sapiens, UniProt Q13085); experiment: ACC1 enzymatic assay (ADP-Glo); details: recombinant human ACC1 5 nM, 10 μM ATP, 10 μM acetyl CoA; Run 1-3; read-out: Compound IC50 (M) ACC1
T2 construct: FLAG (C); His (C); purchased BPS Biosciences 50202; host or cells: Baculovirus infected Sf9 cells
Procedure: Human ACC1 (Cat#50202 Lot #120830) and ACC2 (Cat #50201 Lot #160217) were obtained from BPS Biosciences, San Diego, Calif. 92121. Human ACC1 had C-terminal flag and His-tags with a MW of 270 KDa after purification from Baculovirus infected Sf9 cell expression system and came as a solution in 50 mM Tris-HCl, pH 8.0, 500 mM NaCl, 10% glycerol, 1 mM DTT, 100 μg/ml FLAG peptide with 70% purity. The stock concentration was 0.25 mg/ml corresponding to 0.926 μM. Human ACC2 was also purified from Baculovirus infected Sf9 expression system. […] The stock concentration was 0.1 mg/ml corresponding to 0.36 μM. The assay buffer for measuring the activity of ACC contained: 30 mM HEPES (pH 7.4), 2 mM MgCl2, 0.01% Brij35, 2 mM DTT, 1% DMSO (solvent for compound). For ACC1 and ACC2 assays, the following concentrations of substrate and cofactors were used: 12 mM NaHCO3, 10 μM acetyl CoA, 10 μM ATP, and 2 mM K-citrate. The recombinant human enzyme was used at 5 nM for ACC1 and 1 nM for ACC2. In brief, enzyme alone in the above buffer without substrate was used for background. All test materials were dissolved in 100% DMSO using acoustic technology (Echo550). The prepared solution was preincubated for 15 min followed by the addition of 5 μL/well of ADP standard. ATP was then added to start the reaction. The assay contents were spun and briefly shaken followed by incubation at room temperature for 1 h. At the end of completion of assay, 5 μL of ADP-Glo was added to each well to stop the reaction. The contents were mixed, spun and incubated at room temperature for 40 min followed by the addition of 10 μL/well of ADP detection reagent. The contents were spun, mixed and covered with plastic to measure luminescence. […] The light generated, measured in a luminometer, correlates to the amount of ADP generated in the ACC assay, which is indicative of ACC activity.
The enzyme concentrations for ACC1 and ACC2 were 5 nM and 1 nM, respectively.
Data represent nM or μM ADP produced, % Activity (relative to no inhibitor controls), and curve fits were performed by GraphPad Prism software. The IC50 concentration-response curves were generated for both the ACC1 and ACC2 assays using recombinant human ACC.

Aurora A = target: T3, Aurora A (Homo sapiens, UniProt O14965); experiment: Kinase assay, wild type kinases; details: compound 10 μM, 10 μM ATP, duplicate (Data 1, Data 2), >100 activation, <100 inhibition; for remaining activity at 10 µM: read-out: % Enzyme Activity (relative to DMSO controls), Aurora A
T3 sequence (O14965 1-403): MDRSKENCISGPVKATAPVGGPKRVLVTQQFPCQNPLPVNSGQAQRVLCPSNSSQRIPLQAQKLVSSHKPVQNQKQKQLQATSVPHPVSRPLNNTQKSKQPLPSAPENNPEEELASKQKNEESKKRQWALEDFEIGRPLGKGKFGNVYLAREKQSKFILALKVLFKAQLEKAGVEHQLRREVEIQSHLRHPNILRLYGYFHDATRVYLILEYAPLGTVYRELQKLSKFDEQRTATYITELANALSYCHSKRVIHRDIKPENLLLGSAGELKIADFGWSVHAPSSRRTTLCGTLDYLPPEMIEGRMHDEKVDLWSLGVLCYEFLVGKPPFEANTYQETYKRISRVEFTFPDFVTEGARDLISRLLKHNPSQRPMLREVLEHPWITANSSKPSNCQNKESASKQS

CAMK2g = CAMK2g (Homo sapiens, UniProt Q13555); experiment: Kinase assay, wild type kinases; details: compound 10 μM, 10 μM ATP, duplicate (Data 1, Data 2), >100 activation, <100 inhibition; for remaining activity at 10 µM: read-out: % Enzyme Activity (relative to DMSO controls), CAMK2g

Molecule `CC(C)(CCCCc1cccc(CCCCC(C)(C)C(=O)O)c1)C(=O)O` [Compound I-32, 6-[3-(5-carboxy-5-methylhexyl)-phenyl]-2,2-dimethylhexanoic acid] has a remaining activity at 10 µM (AURORA C) of 104%, a remaining activity at 10 µM (GSK3b) of 78% and a remaining activity at 10 µM (Aurora B) of 71.4%. The remaining activity at 10 µM (MLCK/MYLK) was 106%, the IC50 (Human ACC1) was 0.000284 M and 0.000272 M and 0.00022 M and the remaining activity at 10 µM (Aurora A) was 94.9%. For the same molecule, the remaining activity at 10 µM (CAMK2g) was 73.2%.

`CC(C)(CCCCc1ccc(CCCCC(C)(C)C(=O)O)cc1)C(=O)O` [Compound I-1, 6-[4-(5-carboxy-5-methylhexyl)-phenyl]-2,2-dimethylhexanoic acid] was tested, and the remaining activity at 10 µM (AURORA C) was 101%, the remaining activity at 10 µM (GSK3b) was 83.2% and the remaining activity at 10 µM (Aurora B) was 69%. The remaining activity at 10 µM (MLCK/MYLK) was 110%, the remaining activity at 10 µM (Aurora A) was 89.1% and the remaining activity at 10 µM (CAMK2g) was 60.6%.

`CC(C)(CCCCc1cccc(CCCCC(C)(C)C(=O)SCCNC(=O)CCNC(=O)[C@H](O)C(C)(C)COP(=O)(O)OP(=O)(O)OC[C@H]2O[C@@H](n3cnc4c(N)ncnc43)[C@H](O)[C@@H]2OP(=O)(O)O)c1)C(=O)O` [Compound I-32-CoA, 6-[3-(5-Carboxy-5-methylhexyl)-phenyl]-2,2-dimethylhexanoic acid Coenzyme A Ester] was tested, and the “% Enzyme Activity (relative to DMSO controls), AURORA C” value (AURORA C) was 48.46% and 46.83%, the “% Enzyme Activity (relative to DMSO controls), GSK3b” value (GSK3b) was 23.69% and 22.51% and the “% Enzyme Activity (relative to DMSO controls), Aurora B” value (Aurora B) was 33.27% and 30.67%. For the same molecule, the “% Enzyme Activity (relative to DMSO controls), MLCK/MYLK” value (MLCK/MYLK) was 3.21% and 1.59%, the IC50 (Human ACC1) was 5.07e-06 M and 5e-06 M and 6.03e-06 M and the “% Enzyme Activity (relative to DMSO controls), Aurora A” value (Aurora A) was 13.04% and 11.95%. The “% Enzyme Activity (relative to DMSO controls), CAMK2g” value (CAMK2g) was 35.05% and 34.20%.

For `CC(C)(CCCCc1ccc(CCCCC(C)(C)C(=O)SCCNC(=O)CCNC(=O)[C@H](O)C(C)(C)COP(=O)(O)OP(=O)(O)OC[C@H]2O[C@@H](n3cnc4c(N)ncnc43)[C@H](O)[C@@H]2OP(=O)(O)O)cc1)C(=O)O` [Compound I-1-CoA, 6-[4-(5-carboxy-5-methylhexyl)-phenyl]-2,2-dimethylhexanoic acid Coenzyme A ester], the “% Enzyme Activity (relative to DMSO controls), AURORA C” value (AURORA C) was 78.81% and 72.15%, the “% Enzyme Activity (relative to DMSO controls), GSK3b” value (GSK3b) was 63.29% and 62.44% and the “% Enzyme Activity (relative to DMSO controls), Aurora B” value (Aurora B) was 36.79% and 32.68%. For the same molecule, the “% Enzyme Activity (relative to DMSO controls), MLCK/MYLK” value (MLCK/MYLK) was 2.06% and −0.71%, the IC50 (Human ACC1) was 1.63e-05 M and 1.33e-05 M and 1.25e-05 M and the “% Enzyme Activity (relative to DMSO controls), Aurora A” value (Aurora A) was 12.44% and 12.42%. For the same molecule, the “% Enzyme Activity (relative to DMSO controls), CAMK2g” value (CAMK2g) was 53.91% and 53.05%.
